The values that follow come from patent publication US20230107642A1 (Erasca, Inc., priority 2020, published 2023).

One experiment deals with T1, Cys12 of the KRAS 4B G12C protein (Homo sapiens, UniProt P01116, G12C).
T1 construct: This protein contained 188 amino acids in total, including an N-terminal 6-Histidine tag; made in house; host or cells: E. coli BL21
Put plainly: In vitro covalent adduct formation (CAF) assay, LC-MS intact mass. Type of experiment: binding. Conditions: 10 uM compound, 60 min. Put shortly:
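GDP-loaded (>95%) His-TEV-tagged KRAS 4B G12C (residues 1–169), 5 μM in TBS pH 7.4, incubated with 10 μM compound (4% DMSO) at 22° C for one hour. Intact-protein LC-MS gave free:adduct ratios, reported as percent protein modified; duplicate runs.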
Take `C=CC(=O)N1[C@H](C)CN(c2nc(=O)n3c4c(c(-c5cc(Cl)c(F)cc5F)c(C(F)(F)F)cc24)SCC2(COC2)C3)C[C@@H]1C` (atropisomer, axis not shown) [Example 1361b]: the “% CAF 10 uM @ 60 min” value came out at 71.4%.
Still for that read-out and setting: then `C=CC(=O)N1[C@H](C)CN(c2nc(=O)n3c4c(c(-c5ccc(F)cc5F)c(C(F)(F)F)cc24)SC[C@@H]3CN2CCN(CC)CC2)C[C@@H]1C` (atropisomer, axis not shown) [Example 1330, (3S,10S)-7-((3S,5R)-4-acryloyl-3,5-dimethylpiperazin-1-yl)-10-(2,4-difluorophenyl)-3-((4-ethylpiperazin-1-yl)methyl)-9-(trifluoromethyl)-2,3-dihydro-5H-[1,4]thiazino[2,3,4-ij]quinazolin-5-one], with 85%; and `C=CC(=O)N1[C@H](C)CN(c2nc(=O)n3c4c(c(-c5ccc(F)cc5F)c(C(F)(F)F)cc24)SC[C@@H]3CN2CCN(C3CC3)CC2)C[C@@H]1C` (atropisomer, axis not shown) [Example 1346, (3S,10R)-7-((3S,5R)-4-acryloyl-3,5-dimethylpiperazin-1-yl)-3-((4-cyclopropylpiperazin-1-yl)methyl)-10-(2,4-difluorophenyl)-9-(trifluoromethyl)-2,3-dihydro-5H-[1,4]thiazino[2,3,4-ij]quinazolin-5-one], with 96.9%.
For `C=CC(=O)N1[C@H](C)CN(c2nc(=O)n3c4c(c(-c5ccc(F)cc5F)c(C(F)(F)F)cc24)SC[C@@H]3COCC)C[C@@H]1C` [Example 1414, (3S)-7-((3S,5R)-4-acryloyl-3,5-dimethylpiperazin-1-yl)-10-(2,4-difluorophenyl)-3-(ethoxymethyl)-9-(trifluoromethyl)-2,3-dihydro-5H-[1,4]thiazino[2,3,4-ij]quinazolin-5-one], the “% CAF 10 uM @ 60 min” value worked out at 91.8%.
`C=CC(=O)N1[C@H](C)CN(c2nc(=O)n3c4c(c(-c5ccc(F)cc5)c(C(F)(F)F)cc24)SC[C@@H](CO)C3)C[C@@H]1C` [Example 1398, (R)-8-((3S,5R)-4-acryloyl-3,5-dimethylpiperazin-1-yl)-11-(4-fluorophenyl)-3-(hydroxymethyl)-10-(trifluoromethyl)-3,4-dihydro-2H,6H-[1,4]thiazepino[2,3,4-ij]quinazolin-6-one]: the “% CAF 10 uM @ 60 min” value is 44.2%.
The same measure, in the same setting: in the case of `C=CC(=O)N1[C@H](C)CN(c2nc(=O)n3c4c(c(-c5ccc(F)cc5)c(C(F)(F)F)cc24)SC[C@@H]3COCC)C[C@@H]1C` [Example 1415, (S)-7-((3S,5R)-4-acryloyl-3,5-dimethylpiperazin-1-yl)-3-(ethoxymethyl)-10-(4-fluorophenyl)-9-(trifluoromethyl)-2,3-dihydro-5H-[1,4]thiazino[2,3,4-ij]quinazolin-5-one] it was 90.1%; in that of `C=CC(=O)N1CCN(c2nc(=O)n3c4c(c(-c5ccc(F)cc5)c(C(F)(F)F)cc24)SC[C@@H]3COCOC)CC1` [Example 1358, (S)-7-(4-acryloylpiperazin-1-yl)-10-(4-fluorophenyl)-3-((methoxymethoxy)methyl)-9-(trifluoromethyl)-2H-[1,4]thiazino[2,3,4-ij]quinazolin-5(3H)-one], 96.3%.
Still for that read-out and setting: in the case of `C=CC(=O)N1[C@H](C)CN(c2nc(=O)n3c4c(c(-c5cc(Cl)c(F)cc5F)c(C(F)(F)F)cc24)SC[C@@H]3CN2CCN(C3CC3)CC2)C[C@@H]1C` (atropisomer, axis not shown) [Example 1349, (3S,10S)-7-((3S,5R)-4-acryloyl-3,5-dimethylpiperazin-1-yl)-10-(5-chloro-2,4-difluorophenyl)-3-((4-cyclopropylpiperazin-1-yl)methyl)-9-(trifluoromethyl)-2,3-dihydro-5H-[1,4]thiazino[2,3,4-ij]quinazolin-5-one] it was 86.9%; in that of `C=CC(=O)N1C[C@H](C)N(c2nc(=O)n3c4c(c(-c5ccc(F)c(Cl)c5)c(C(F)(F)F)cc24)SC[C@@H]3CN2CCN(CC)CC2)C[C@H]1C` [Example 1380, (S)-7-((2S,5R)-4-acryloyl-2,5-dimethylpiperazin-1-yl)-10-(3-chloro-4-fluorophenyl)-3-((4-ethylpiperazin-1-yl)methyl)-9-(trifluoromethyl)-2,3-dihydro-5H-[1,4]thiazino[2,3,4-ij]quinazolin-5-one], 88.4%.
Same read-out and setting: then `[2H]C([2H])=C([2H])C(=O)N1[C@H](C)CN(c2nc(=O)n3c4c(c(-c5ccc(F)cc5F)c(C(F)(F)F)cc24)SC[C@@H]3COC)C[C@@H]1C` (atropisomer, axis not shown) [Example 1405, (3S,10R)-7-((3S,5R)-4-(acryloyl-d3)-3,5-dimethylpiperazin-1-yl)-10-(2,4-difluorophenyl)-3-(methoxymethyl)-9-(trifluoromethyl)-2,3-dihydro-5H-[1,4]thiazino[2,3,4-ij]quinazolin-5-one], with 88.6%; and `C=CC(=O)N1CCN(c2nc(=O)n3c4c(c(-c5cc(Cl)c(F)cc5F)c(C(F)(F)F)cc24)SCC2(COC2)C3)CC1` (atropisomer, axis not shown) [Example 1396, (R)-8′-(4-acryloylpiperazin-1-yl)-11′-(5-chloro-2,4-difluorophenyl)-10′-(trifluoromethyl)-2′H,4′H,6′H-spiro[oxetane-3,3′-[1,4]thiazepino[2,3-4-ij]quinazolin-6′-one], with 95.1%; and `C=CC(=O)N1[C@H](C)CN(c2nc(=O)n3c4c(c(-c5ccc(F)cc5F)c(C(F)(F)F)cc24)SC[C@@H]3COCOC)C[C@@H]1C` (atropisomer, axis not shown) [Example 1319, (3S,10S)-7-((3S,5R)-4-acryloyl-3,5-dimethylpiperazin-1-yl)-10-(2,4-difluorophenyl)-3-((methoxymethoxy)methyl)-9-(trifluoromethyl)-2,3-dihydro-5H-[1,4]thiazino[2,3,4-ij]quinazolin-5-one], with 96.3%.

Still in this experiment, the particulars now being: 10 uM compound, 60 min incubation.
As for `C=CC(=O)N1C[C@H](C)N(c2nc(=O)n3c4c(c(-c5cc(Cl)c(F)cc5F)c(C(F)(F)F)cc24)SCC2(COC2)C3)C[C@H]1C` [Example 1122, 8′-((2S,5R)-4-acryloyl-2,5-dimethylpiperazin-1-yl)-11′-(5-chloro-2,4-difluorophenyl)-10′-(trifluoromethyl)-2′H,4′H,6′H-spiro[oxetane-3,3′-[1,4]thiazepino [2,3,4-ij]quinazolin]-6′-one], the “% CAF 10 uM @ 60 min” value came to 74.3%.
The same measure, in the same setting: then `C=CC(=O)N1C[C@H](C)N(c2nc(=O)n3c4c(c(-c5ccc(F)cc5)c(C(F)(F)F)cc24)SCC2(COC2)C3)C[C@H]1C` [Example 1111, 8′-((2S,5R)-4-acryloyl-2,5-dimethylpiperazin-1-yl)-11′-(4-fluorophenyl)-10′-(trifluoromethyl)-2′H,4′H,6′H-spiro[oxetane-3,3′-[1,4]thiazepino [2,3,4-ij]quinazolin]-6′-one], with 95.4%.
On the same count and under the same terms, then `C=CC(=O)N1[C@H](C)CN(c2nc(=O)n3c4c(c(-c5cc(Cl)c(F)cc5F)c(C(F)(F)F)cc24)SC[C@@H](N2CCOCC2)C3)C[C@@H]1C` (atropisomer, axis not shown) [Example 1135, (3S,11S)-8-((3S,5R)-4-acryloyl-3,5-dimethylpiperazin-1-yl)-11-(5-chloro-2,4-difluorophenyl)-3-morpholino-10-(trifluoromethyl)-3,4-dihydro-2H,6H-[1,4]thiazepino [2,3,4-ij]quinazolin-6-one], with 72.7%.
On the same count and under the same terms, then `C=CC(=O)N1[C@H](C)CN(c2nc(=O)n3c4c(c(-c5cc(Cl)c(F)cc5F)c(C(F)(F)F)cc24)SC[C@@H](N2CCCC2)C3)C[C@@H]1C` (atropisomer, axis not shown) [Example 1137, (3S,11R)-8-((3S,5R)-4-acryloyl-3,5-dimethylpiperazin-1-yl)-11-(5-chloro-2,4-difluorophenyl)-3-(pyrrolidin-1-yl)-10-(trifluoromethyl)-3,4-dihydro-2H,6H-[1,4]thiazepino [2,3,4-ij]quinazolin-6-one], with 83.4%.

Staying with this experiment, now noted: 10 μM compound, after 1 hour.
For the compound `C=CC(=O)N1[C@H](C)CN(c2nc(=O)n3c4c(c(-c5cc(Cl)c(F)cc5F)c(C(F)(F)F)cc24)SC[C@@H](Oc2ccncc2)C3)C[C@@H]1C` [Example 1234, (3S)-8-((3S,5R)-4-acryloyl-3,5-dimethylpiperazin-1-yl)-11-(5-chloro-2,4-difluorophenyl)-3-(pyridin-4-yloxy)-10-(trifluoromethyl)-3,4-dihydro-2H,6H-[1,4]thiazepino[2,3,4-ij]quinazolin-6-one], the “CAF (% after 1 hour)” value is recorded as 94%.

Staying with this experiment, now noted: after 60 min.
As for `C=CC(=O)N1[C@H](C)CN(c2nc(=O)n3c4c(c(-c5ccc(F)cc5)c(C(F)(F)F)cc24)SC[C@H](OCOC)C3)C[C@@H]1C` [Example 1009, (R)-8-((3S,5R)-4-acryloyl-3,5-dimethylpiperazin-1-yl)-11-(4-fluorophenyl)-3-(methoxymethoxy)-10-(trifluoromethyl)-3,4-dihydro-2H,6H-[1,4]thiazepino[2,3,4-ij]quinazolin-6-one], the “CAF (% binding after 60 min)” value is 96%.
Regarding `C=CC(=O)N1CCN(c2nc(=O)n3c4c(c(-c5ccc(F)cc5)c(C(F)(F)F)cc24)SC[C@H](OCOC)C3)CC1` [Example 1005, (R)-8-(4-acryloylpiperazin-1-yl)-11-(4-fluorophenyl)-3-(methoxymethoxy)-10-(trifluoromethyl)-3,4-dihydro-2H,6H-[1,4]thiazepino[2,3,4-ij]quinazolin-6-one], the “CAF (% binding after 60 min)” value is on record as 97%.
